Source: patent US5648359A, “Tumor necrosis factor production inhibitors” (Sumitomo Pharmaceuticals Company, Limited, priority 1993, dated 1997)

What was measured:
[1] = tested on: TNF production in mouse peritoneal macrophages; test: Inhibitory effect on TNF production in mouse peritoneal macrophages (50 μM and 100 μM); type: cell-based, mouse (BALB/c); settings: Peritoneal macrophage, read-out: Inhibition of TNF Production or secretion; for inhibition at 100 µM: 100 μM compound; for inhibition at 50 µM: 50 μM compound
Procedure: (§1) BALB/c mice (5 weeks old, female, Charles River Japan) were intraperitoneally injected with 1 ml of 3% thioglycollate broth. After 4 days, the mice were sacrificed. Peritoneal exudated cells (PECs) were collected from the peritoneal cavity by washing with minimum essential medium (hereinafter abbreviated as MEM, manufactured by Handai Biseibutubyo Kenkyukai, Osaka, Japan) containing 5 U/ml heparin and 1% fetal bovine serum (FBS, manufactured by GIBCO Laboratories Inc.). PECs were washed three times with MEM, suspended with MEM containing 10% FBS. After the viable cells were counted by exclusion of trypan blue dye, the suspension was adjusted at the final concentration of 2×10^6 cells/ml with MEM containing 10% FBS and seeded into a 96-well microplate (Costar, Cambridge, Mass., USA) at 2×10^5 cells/100 μl/well. The PECs were incubated for an hour at 37° C. in a humidified 5% CO2 incubator, and were washed twice with MEM warmed at 37° C. to remove non-adherent cells. Residual adherent cells were used as peritoneal macrophages. After the washing above, 50 μl each/well of MEM containing 10% FBS was added to each well and provided for use in the following experiment.
The powdery compound of the present invention was dissolved in dimethylsulfoxide in a concentration of 30 mM. […] In the peritoneal macrophages obtained above, 50 μl each of the dilution was added to each well to make the total volume 100 μl. Thereafter 100 μl each of lipopolysaccharide (hereinafter abbreviated as LPS, E. coli 0111B4, manufactured by DIFCO, USA) was added to each well in the final concentration of 10 μg/ml. After the cells were incubated at 37° C. for 18 hours in a humidified 5% CO2 incubator, 25 μl of the supernatant in each well was collected.
(§2) The TNF activity in the supernatant collected was determined by bioassay using TNF-sensitive mouse fibroblast cell line L929 cells. That is, 100 μl each of MEM containing 10% FBS was added to each well of a 96-well microplate; using the resulting mixture, 25 μl of the collected supernatant was diluted to 5-fold dilution to final concentrations (concentrations after the following addition of L929 cell suspension) of 10%, 2%, 0.4% and 0.08%.
L929 cells were then suspended (4×10^5 cells/ml) in MEM containing 10% FBS and 1 μg/ml actinomycin D (Sigma Co.) and 100 μl each of the suspension was added to each well of the above microplate at 4×10^4 cells/well and cultured at 37° C. in a humidified 50% CO2. The viable cells were counted by partial modification of the MTT method reported in Monosann et al., T., J. Immunol. Method, 65, 55-63, 1983. The modified MTT method comprises the following steps. One mg/ml of 3-(4,5-dimethylthiazol-2-yl)-2,5-diphenyltetrazolium bromide (hereinafter abbreviated as MTT, manufactured by Sigma Co.) was dissolved in MEM, and 50 μl each of the solution was added to each well of the microplate above. […] After shaking the 96-well microplate for a few minutes, the absorbance in each well was measured with a microplate reader (Corona Co.) at an absorption wavelength of 550 nm. The absorbance correlated to the count of the viable L929 cells and represented the TNF activity in the supernatant. The TNF activity was determined in terms of unit (U)/ml from the calibration curve of absorbance for the TNF activity obtained using mouse recombinant TNF α (TNF-M, manufactured by Genzyme Co.) as a standard. The activity of inhibiting TNF production of each compound, was determined by the following equation. […]

[2] = tested on: TNF production or secretion in mouse peritoneal macrophages; test: Inhibitory effect on TNF production or secretion in mouse peritoneal macrophages (30 μM); type: cell-based, mouse (BALB/c); settings: 30 μM compound, LPS 10 μg/ml, 18 hours, TNF by L929 bioassay; for inhibition at 30 µM: Mus musculus
Procedure: Inhibitory effect on TNF production or secretion in mouse peritoneal macrophages (In case drug concentration is 30 μM)
as §1
The powdery compound of the present invention was dissolved in dimethylsulfoxide in a concentration of 30 mM. The solution was then diluted with MEM containing 10% FBS in the final concentration of 30 μM. In the peritoneal macrophages obtained above, 50 μl each of the dilution was added to each well to make the total volume 100 μl. Thereafter 100 μl each of lipopolysaccharide (hereinafter abbreviated as LPS, E. coli 0111B4, manufactured by DIFCO, USA) was added to each well in the final concentration of 10 μg/ml. After the cells were incubated at 37° C. for 18 hours in a humidified 5% CO2 incubator, 25 μl of the supernatant in each well was collected.
as §2
L929 cells were then suspended (4×10^5 cells/ml) in MEM containing 10% FBS and 1 μg/ml actinomycin D (Sigma Co.) and 100 μl each of the suspension was added to each well of the above microplate at 4×10^4 cells/well and cultured at 37° C. in a humidified 50% CO2. The viable cells were counted by partial modification of the MTT method reported in Monosann et al., T., J. Immunol. Method, 65, 55-63, 1983. The modified MTT method comprises the following steps. One mg/ml of 3-(4,5-dimethylthiazol-2-yl)-2,5-diphenyltetrazolium bromide (hereinafter abbreviated as MTT, manufactured by Sigma Co.) was dissolved in MEM, and 50 μl each of the solution was added to each well of the microplate above. After incubating the microplate for further 6 hours, the supernatant was discarded and 100 μl of 0.004N HCl-isopropyl alcohol and then 10 μl of 0.01% sodium laurylsulfate aqueous solution was added to each well. After shaking the 96-well microplate for a few minutes, the absorbance in each well was measured with a microplate reader (Corona Co.) at an absorption wavelength of 550 nm. The absorbance correlated to the count of the viable L929 cells and represented the TNF activity in the supernatant. The TNF activity was determined in terms of unit (U)/ml from the calibration curve of absorbance for the TNF activity obtained using mouse recombinant TNF α (TNF-M, manufactured by Genzyme Co.) as a standard. The activity of inhibiting TNF production of each compound, was determined by the following equation.
Inhibition of TNF production or secretion (%)=(1-TNF activity in the […]

[3] = tested on: HIV-1; settings: cited from earlier work
[4] = tested on: experimental allergic encephalomyelitis induced on an animal model; settings: cited from earlier work
[5] = tested on: endotoxin-shocked mice; settings: mouse, in vivo; cited from earlier work
[6] = tested on: cancer patients; settings: human, in vivo; cited from earlier work
[7] = tested on: TNF; settings: cited from earlier work

Compound	inhibition at 100 µM [1] [%]	inhibition at 30 µM [2] [%]	Inhibition of TNF Production or Secretion [2] [%]	also measured
CCCCCC(=O)N1C2Cc3cc4c(cc3C1Cc1cc3c(cc12)OCO3)OCO4 [Example 19]	51	16		
CCCN1C2Cc3cc4c(cc3C1Cc1cc3c(cc12)OCO3)OCO4 [Example 29]	81	31		
CCCCN1C2Cc3cc4c(cc3C1Cc1cc3c(cc12)OCO3)OCO4 [Example 30]	78	-37		inhibition at 50 µM [1]: 41%
NCCCN1C2Cc3cc4c(cc3C1Cc1cc3c(cc12)OCO3)OCO4 [Example 49, 15-(3-aminopropyl)-5,6,12,13-tetrahydrocycloocta[1,2-f:5,6-f']bis[1,S]benzodioxol-5,12-imine]		-4		inhibition at 50 µM [1]: 21%
NCCCC(=O)N1C2Cc3cc4c(cc3C1Cc1cc3c(cc12)OCO3)OCO4 [Example 54, 15-(4-aminobutyryl)-5,6,12,13-tetrahydrocycloocta[1,2-f:5,6-f']bis[1,3]benzodioxol-5,12-imine]		35		
CC(=O)CCCCn1c(=O)c2c(ncn2C)n(C)c1=O [Pentoxifylline]				prevention of HIV-1 replication [3]: activity of preventing HIV-1 replication; prevention of experimental allergic encephalomyelitis [4]: activity of preventing experimental allergic encephalomyelitis induced on an animal model; prevention of death in endotoxin-shocked mice [5]: activity of preventing death in endotoxin-shocked mice; sense of well-being / weight loss in cancer patients [6]: activity of improving the sense of well-being or preventing a weight loss in cancer patients; TNF inhibitory activity [7]: showing an activity of inhibiting TNF
isomeric mixture of 16-acetyl-2-aminomethyl-6,7,13,14-tetrahydro-[1,3]benzodioxolo[5,6-f]cycloocta[1,2-g]-1,4-benzodioxan-6,13-imine and 16-acetyl-3-aminomethyl-6,7,13,14-tetrahydro-[1,3]benzodioxolo[5,6-f]cycloocta[1,2-g]-1,4-benzodioxan-6,13-imine [Example 9]			69	
mixture of 16-acetyl-6,7,13,14-tetrahydro-2-hydroxymethyl[1,3]benzodioxolo[5,6-f]cycloocta[1,2-g]-1,4-benzodioxan-6,13-imine and 16-acetyl-6,7,13,14-tetrahydro-3-hydroxymethyl[1,3]benzodioxolo[5,6-f]cycloocta[1,2-g]-1,4-benzodioxan-6,13-imine [Example 8]			86	
mixture of 17-acetyl-2-ethoxycarbonyl-6,7,14,15-tetrahydrocycloocta-[1,2-g:5,6-g']bis[1,4]-benzodioxan-6,14-imine and 17-acetyl-3-ethoxycarbonyl-6,7,14,15-tetrahydrocycloocta[1,2-g:5,6-g']bis[1,4]benzodioxan-6,14-imine [Example 6]			89	
mixture of 17-acetyl-6,7,14,15-tetrahydro-2-hydroxymethylcycloocta[1,2-g:5,6-g']bis[1,4]benzodioxan-6,14-imine and 17-acetyl-6,7,14,15-tetrahydro-3-hydroxymethylcycloocta[1,2-g: 5,6-g']bis[1,4]benzodioxan-6,14-imine [Example 7]			65	
